Assay results reported in US9598398B2, “Heterocyclic compound” (TAKEDA PHARMACEUTICAL COMPANY LIMITED, priority 2013, dated 2017).

Each compound was assayed on 24-HC in the brain extract (assay: Quantification test of 24-HC in mouse brain after repeated oral administration). Conditions: 10 mg/kg orally once a day for 3 days, female C57BL/6N mice; brain 24-HC at 16 hours after the third administration; relative to control group as 100%.
Assay type: in vivo
Procedure: Animals used were 6-week-old female C57BL/6N mice (3 mice/group). A test compound was suspended in a 0.5% aqueous methylcellulose [133-14255 WAKO] solution (1 mg/mL). The body weight of the mice was measured, and the solution was forcibly administered orally and repeatedly once a day for 3 days. At 16 hours after the third administration, half of the brain was harvested, and the amount of 24-HC was measured.
The wet weight of the brain was measured, and the brain was homogenized with 4-fold amount of saline. This solution was used as a brain extract. The 24-HC in the brain extract was extracted with an acetonitrile solution (98% acetonitrile, 1.98% methanol, 0.02% formic acid), and quantified by HPLC. The average value of 24-HC amount was calculated and the results are shown in relative values with the control group as 100%.
`Cn1cc(CN2CCC(Oc3nccnc3-c3ccncc3)CC2)cn1` [Example 40, 2-((1-((1-methyl-1H-pyrazol-4-yl)methyl)piperidin-4-yl)oxy)-3-(pyridin-4-yl)pyrazine] was tested, and the “Brain 24-HC level relative to control (%)” value was 84%. In the case of `CN(C)C(=O)CN1CCC(Oc2nccnc2-c2ccncc2)C(F)(F)C1` (stereo not shown) [Example 54, 2-(3,3-difluoro-4-((3-(pyridin-4-yl)pyrazin-2-yl)oxy)piperidin-1-yl)-N,N-dimethylacetamide], the “Brain 24-HC level relative to control (%)” value is reported as 73%. For `c1cnc(-c2ccncc2)c(OC2CCN(Cc3cscn3)CC2)c1` [Example 47, 3-((1-(1,3-thiazol-4-ylmethyl)piperidin-4-yl)oxy)-2,4′-bipyridine], the “Brain 24-HC level relative to control (%)” value was 75%.

Same assay, conditions: 30 mg/kg orally once a day for 3 days, female C57BL/6N mice; brain 24-HC at 16 hours after the third administration; relative to control group as 100%
In the case of `Cn1cc(S(=O)(=O)N2CCC(Oc3cccnc3-c3ccncc3)C2)cn1` (stereo not shown) [Example 71, 3-((1-((1-methyl-1H-pyrazol-4-yl)sulfonyl)pyrrolidin-3-yl)oxy)-2,4′-bipyridine], the “Brain 24-HC level relative to control (%)” value is reported as 86%. In the case of `Cn1cc(CN2CCC(Oc3cccnc3-c3ccncc3)CC2)cn1` [Example 22, 3-((1-((1-methyl-1H-pyrazol-4-yl)methyl)piperidin-4-yl)oxy)-2,4′-bipyridine], the “Brain 24-HC level relative to control (%)” value is reported as 77%.

Each compound was assayed against T1, human CH24H (Homo sapiens, UniProt Q9Y6A2) (assay: Measurement of CH24H inhibitory activity (24-HC produced from [14C] cholesterol by human CH24H lysate)). Conditions: test compound 1 μM, [14C] cholesterol 15 μM, 37° C., 5 hr, read-out: Inhibitory Rate in 1 μM (%).
T1 construct: Using Full-Length Mammalian Gene Collection No. 4819975 (Invitrogen) as a template; made in house; host or cells: FreeStyle 293-F cells, transient transfection with pcDNA3.1(+)/hCH24H; crude lysate supernatant
T1 sequence (Q9Y6A2 whole entry): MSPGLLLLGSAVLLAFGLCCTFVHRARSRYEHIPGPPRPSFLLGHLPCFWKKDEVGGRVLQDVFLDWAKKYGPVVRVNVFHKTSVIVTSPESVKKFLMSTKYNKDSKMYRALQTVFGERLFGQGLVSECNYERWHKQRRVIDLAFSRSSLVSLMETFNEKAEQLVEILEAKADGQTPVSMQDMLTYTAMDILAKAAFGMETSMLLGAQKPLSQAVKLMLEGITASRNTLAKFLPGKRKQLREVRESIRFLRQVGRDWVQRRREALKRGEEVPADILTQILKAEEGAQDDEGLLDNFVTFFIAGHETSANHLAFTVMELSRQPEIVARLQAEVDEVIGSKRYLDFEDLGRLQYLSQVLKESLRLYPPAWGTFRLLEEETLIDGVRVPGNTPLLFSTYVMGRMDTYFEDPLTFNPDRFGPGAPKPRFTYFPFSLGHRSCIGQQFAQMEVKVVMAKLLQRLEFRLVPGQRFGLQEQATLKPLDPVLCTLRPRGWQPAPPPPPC
Assay type: biochemical
Procedure: A plasmid DNA for expressing human CH24H in a FreeStyle 293 cell was produced as follows. Using Full-Length Mammalian Gene Collection No. 4819975 (Invitrogen) as a template, and the following two kinds of synthesized DNAs:
PCR was performed to amplify 91-1625 bp region of human CH24H (BCO22539). The obtained fragment was cloned using TOPO TA Cloning Kit (Invitrogen). The obtained fragment was subcloned to pcDNA3.1(+) digested with BamHI and XhoI to give a plasmid DNA for human CH24H expression (pcDNA3.1(+)/hCH24H).
The expression of human CH24H was performed using FreeStyle 293 Expression System (Invitrogen). According to the manual attached to FreeStyle 293 Expression System and using the plasmid DNA for human CH24H expression (pcDNA3.1(+)/hCH24H) constructed in Experimental Example 1, a transient expression using FreeStyle 293-F cell was performed. After transfection, the cells were cultured at 37° C., 8% CO2 with shaking at 125 rpm for 2 days. The cells were collected by centrifugation, and suspended in a suspension buffer (100 mM potassium phosphate (pH 7.4), 0.1 mM EDTA, 1 mM DTT, 20% Glycerol). The suspended product was disrupted by a polytron homogenizer (manufactured by Kinematica), and centrifuged at 9000×g for 10 min, and the supernatant was collected. The collected supernatant was cryopreserved (−80° C.) as a human CH24H lysate standard product.
For the measurement of CH24H inhibitory activity, using the human CH24H lysate prepared in Experimental Example 2, the amount of 24-HC produced from cholesterol by catalytic activity of CH24H was measured in the presence of a test compound, and compared with that measured in the absence of the test compound. That is, a test compound solution at various concentrations was mixed with a reaction buffer (50 mM potassium phosphate containing 0.1% BSA and Complete, EDTA-free, pH 7.4) and human CH24H lysate. Then, [^14C] cholesterol (53 mCi/mmol specific activity, 15 μM) was added, and CH24H reaction was performed at 37° C. for 5 hr. After completion of the reaction, a quenching solution consisting of chloroform/methanol/distilled water (2:2:1 v/v) was added, and the resulting 24-HC was extracted by shaking. The extract was applied to silica gel thin layer chromatography (ethyl acetate:toluene=4:6), and the obtained ^14C-24HC fraction was measured with BAS2500 (Fujifilm Corporation).
The inhibitory rate (%) was calculated from the ratio of radioactivity in the presence of a test compound relative to the radioactivity in the absence of the test compound.
Work on `c1ccc(CN2CCC(Oc3ccccc3-c3ccncn3)CC2)cc1` [Example 15, 4-(2-((1-benzylpiperidin-4-yl)oxy)phenyl)pyrimidine] yielded an inhibition at 1 µM of 94%. Compound `Cn1cc(S(=O)(=O)N2CCC(Oc3cc(F)ccc3-c3ccncn3)C2)cn1` (stereo not shown) [Example 84, 4-(4-fluoro-2-((1-((1-methyl-1H-pyrazol-4-yl)sulfonyl)pyrrolidin-3-yl)oxy)phenyl)pyrimidine] has an inhibition at 1 µM of 87%. `O=S(=O)(N1CCOCC1)N1CCC(Oc2cccnc2-c2ccncc2)C1` (stereo not shown) [Example 85, 3-((1-(morpholin-4-ylsulfonyl)pyrrolidin-3-yl)oxy)-2,4′-bipyridine] gave an inhibition at 1 µM of 84%. `O=S(=O)(c1ccccc1)N1CCC(Oc2cccnc2-c2ccncc2)C1` (stereo not shown) [Example 120, 3-((1-(phenylsulfonyl)pyrrolidin-3-yl)oxy)-2,4′-bipyridine] was tested, and the inhibition at 1 µM was 94%. For `COc1ccc(S(=O)(=O)N2CCC(Oc3cccnc3-c3ccncc3)C2)cc1` (stereo not shown) [Example 64, 3-((1-((4-methoxyphenyl)sulfonyl)pyrrolidin-3-yl)oxy)-2,4′-bipyridine], the inhibition at 1 µM was 92%. Compound `COc1ccc(CN2CCN(S(=O)(=O)c3ccc(F)cc3-c3ccncc3)CC2)cc1` [Example 29, 1-((4-fluoro-2-(pyridin-4-yl)phenyl)sulfonyl)-4-(4-methoxybenzyl)piperazine] has an inhibition at 1 µM of 59%. Work on `Fc1ccc(OC2CCN(Cc3ccccc3)CC2)c(-c2ccncc2)c1` [Example 5, 4-(2-((1-benzylpiperidin-4-yl)oxy)-5-fluorophenyl)pyridine] yielded an inhibition at 1 µM of 92%. `O=S(=O)(c1ccc(F)cc1)N1CCC(Oc2nccnc2-c2ccncc2)C1` (stereo not shown) [Example 110, 2-((1-((4-fluorophenyl)sulfonyl)pyrrolidin-3-yl)oxy)-3-(pyridin-4-yl)pyrazine] was tested, and the inhibition at 1 µM was 89%. Compound `c1ccc(CN2CCC(Oc3cccnc3-c3ccncc3)CC2)nc1` [Example 124, 3-((1-(pyridin-2-ylmethyl)piperidin-4-yl)oxy)-2,4′-bipyridine] has an inhibition at 1 µM of 95%. With `CN(C)C(=O)CN1CCC(Oc2ccccc2-c2ccncc2)CC1` [Example 20, N,N-dimethyl-2-(4-(2-(pyridin-4-yl)phenoxy)piperidin-1-yl)acetamide] the inhibition at 1 µM was 83%. In the case of `O=C(CN1CCC(Oc2cccnc2-c2ccncc2)CC1)N1CCOCC1` [Example 38, 2-(4-(2,4′-bipyridin-3-yloxy)piperidin-1-yl)-1-(morpholin-4-yl)ethanone], the inhibition at 1 µM is reported as 84%. In the case of `c1ccc(CN2CCC(Oc3cccnc3-c3ccncc3)CC2)cc1` [Example 4, 3-((1-benzylpiperidin-4-yl)oxy)-2,4′-bipyridine], the inhibition at 1 µM is reported as 86%. `O=C1CN(Cc2ccc(F)cc2)CCN1Cc1cccnc1-c1ccncc1` [Example 55, 1-(2,4′-bipyridin-3-ylmethyl)-4-(4-fluorobenzyl)piperazin-2-one] gave an inhibition at 1 µM of 53%. For `O=C(C1CC1)N1CCC(Oc2cccnc2-c2ccncc2)CC1` [Example 67, (4-(2,4′-bipyridin-3-yloxy)piperidin-1-yl)(cyclopropyl)methanone], the inhibition at 1 µM was 80%. `FC1(F)CN(Cc2ccccc2)CCC1Oc1ccccc1-c1ccncn1` (stereo not shown) [Example 34, 4-(2-((1-benzyl-3,3-difluoropiperidin-4-yl)oxy)phenyl)pyrimidine] showed an inhibition at 1 µM of 91%. `Cn1cc(CN2CCC(Oc3nccnc3-c3ccncc3)CC2)cn1` [Example 40, 2-((1-((1-methyl-1H-pyrazol-4-yl)methyl)piperidin-4-yl)oxy)-3-(pyridin-4-yl)pyrazine] was tested, and the inhibition at 1 µM was 88%. Work on `CN(C)C(=O)CN1CCC(Oc2nccnc2-c2ccncc2)C(F)(F)C1` (stereo not shown) [Example 54, 2-(3,3-difluoro-4-((3-(pyridin-4-yl)pyrazin-2-yl)oxy)piperidin-1-yl)-N,N-dimethylacetamide] yielded an inhibition at 1 µM of 79%. `Cn1cc(S(=O)(=O)N2CCC(Oc3cccnc3-c3ccncc3)C2)cn1` (stereo not shown) [Example 71, 3-((1-((1-methyl-1H-pyrazol-4-yl)sulfonyl)pyrrolidin-3-yl)oxy)-2,4′-bipyridine] showed an inhibition at 1 µM of 89%. Work on `COc1ccc(CC(=O)N2CCC(Oc3ccccc3-c3ccncn3)CC2)cc1` [Example 74, 2-(4-methoxyphenyl)-1-(4-(2-(pyrimidin-4-yl)phenoxy)piperidin-1-yl)ethanone] yielded an inhibition at 1 µM of 88%. `CCN(CC)C(=O)CN1CCC(Oc2cccnc2-c2ccncc2)CC1` [Example 49, 2-(4-(2,4′-bipyridin-3-yloxy)piperidin-1-yl)-N,N-diethylacetamide] showed an inhibition at 1 µM of 85%. `c1cnc(-c2ccncc2)c(OC2CCN(Cc3cscn3)CC2)c1` [Example 47, 3-((1-(1,3-thiazol-4-ylmethyl)piperidin-4-yl)oxy)-2,4′-bipyridine] showed an inhibition at 1 µM of 90%. `Cn1ccnc1CN1CCC(Oc2ccccc2-c2ccncc2)CC1` [Example 16, 4-(2-((1-((1-methyl-1H-imidazol-2-yl)methyl)piperidin-4-yl)oxy)phenyl)pyridine] gave an inhibition at 1 µM of 93%. `COc1ccc(CN2CCN(C(=O)c3cc(C)ccc3-c3ccncc3)CC2)cc1` [Example 3, (4-(4-methoxybenzyl)piperazin-1-yl)(5-methyl-2-(pyridin-4-yl)phenyl)methanone] showed an inhibition at 1 µM of 87%. Work on `CCS(=O)(=O)N1CCC(Oc2cc(F)ccc2-c2ccncc2)C1` (stereo not shown) [Example 88, 4-(2-((1-(ethylsulfonyl)pyrrolidin-3-yl)oxy)-4-fluorophenyl)pyridine] yielded an inhibition at 1 µM of 82%. For `c1ccc(CN2CCC(Oc3cccnc3-c3ccncc3)C2)cc1` (stereo not shown) [Example 61, 3-((1-benzylpyrrolidin-3-yl)oxy)-2,4′-bipyridine], the inhibition at 1 µM was 89%. With `Cn1cc(CN2CCC(Oc3cccnc3-c3ccncc3)CC2)cn1` [Example 22, 3-((1-((1-methyl-1H-pyrazol-4-yl)methyl)piperidin-4-yl)oxy)-2,4′-bipyridine] the inhibition at 1 µM was 89%.
